Measured values reported in patent publication US6541515B2, “HIV integrase inhibitors” (Merck & Co., Inc., priority 2000, dated 2003).

Target: recombinant integrase (HIV integrase) (Human immunodeficiency virus type 1 group M subtype B, UniProt P04585)
Assay: HIV integrase assay: strand transfer catalyzed by recombinant integrase
Assay type: biochemical
Settings: strand transfer activity
Procedure: HIV Integrase Assay: Strand Transfer Catalyzed by Recombinant Integrase and Preintegration Complexes
Assays for the strand transfer activity of integrase can be conducted according to Wolfe et al., J. Virol. 1996, 70: 1424 and Farnet and Bushman, Cell 1997, 88: 483 for recombinant integrase and preintegration complexes, respectively, hereby incorporated by reference. Compound A was tested in the recombinant integrase assay and found to have an IC50 of about 20 micromolar.

CCCCC(C)C1=C(O)C(=O)C2CC(C)CC(C(=O)O)C2C1(C)C(=O)CCO (stereo not shown) [Compound A]
IC50: ~20 µM
